Values quoted from earlier work, collected in US20260335309A1, “METHODS OF TREATING UVEAL MELANOMA” (IDEAYA BIOSCIENCES, INC., priority 2022, published 2026).

Test system: uveal melanoma cells harboring GNAQ mutations
Settings: by targeting PKC/ERK1/2 and PKC/NF-xB pathways; X. Wu et al., Mol. Cancer Ther. 2012

CN1CCN(c2nc(C3=C(c4c[nH]c5ccccc45)C(=O)NC3=O)c3ccccc3n2)CC1 [sotrastaurin]
inhibition of growth of uveal melanoma cells harboring GNAQ mutations: selectively inhibit the growth of uveal melanoma cells harboring GNAQ mutations
